The record followed here is patent US6340755B1, “5H-Pyrano[2,3-d: 6,5-d']dipyrimidine derivatives having an antibacterial, antiviral and immuno-modulating activity” (Natural Drug Sciences LLC, priority 2000, dated 2002).

SMILES strings stand for the structures.

Data set [1] has as its system primary culture of human lymphocytes. In words: Interferon-inducing activity in primary culture of human lymphocytes (immunoenzyme IFN determination). Format: cell-based. More on the design: unit of the concentration uncertain. The following applies: 24 hours of incubation. How it is done: Interferon synthesis induction by the claimed preparations was conducted on a primary culture of human lymphocytes (the cells in the human body are the main producers of interferon). To obtain a culture of the lymphocytes we used fresh blood (12 hours after collection) from healthy […] (not from the second group).
The lymphocyte concentration was determined after staining with methyl blue and the number of cells in the Goryaev chamber was calculated. […] The final concentration of the lymphocytes in the induction mixture was 3·10^6 cells/ml. The following controls were processed in parallel with the test samples:
The control and the experimental samples were incubated for 24 hours at 37° C. Following incubation the samples were centrifuged at 2000 g to settle out the cellular elements and the INF-containing supernatant was taken from the samples and analyzed for INF content. The cell residue was resuspended in the same volume of nutrient medium, stained with a vital dye—trypan blue—and the number of cells in the Goryaev chamber was calculated (as described above) to determine the cytotoxic activity of the preparations.
For the quantitative determination of INF in the control and experimental samples we used the ProCon IF2 Plus immunoenzyme test system sold by TOO Proteinovyi Kontur. To determine the quantity of interferon s in the sample we used a solid-phase immunoenzyme method utilizing horseradish peroxidase as the enzyme indicator. The activity of the bound peroxidase was measured using an automated photometer at a wavelength of 450 nm for the microplanchets with a microprocessor. […] On the basis of the results obtained we plotted a calibration curve that allowed us to obtain data expressed in International Units (IU) from the microprocessor of the automated photometer. The results of the analysis are expressed in IU of activity of INF per ml in the given induction system containing 3·10^6 lymphocytes/ml. Every experimental and control point was studied in 4 parallel runs.
The results obtained were analyzed statistically using the t-test and the confidence interval at p=0.05 was calculated. Analysis of the convergence of the results of the parallel tests were performed.

In another data set the test system is C. trachomatis D323. As to the kind of experiment: Activity on Chlamydia trachomatis in McCoy and L929 cell cultures. In kind it is cell-based. The following applies: 48 hours; for number of cells in 100 fields (unchanged cells): cell control 8000, infected cell control 6400. The method, then:
The antimicrobial activity of the claimed compounds was studied on C. trachomatis […]-a standard strain from the collection of the Department of Microbiology of the Pavlov St.-Petersburg State University. This strain was isolated from a patient with […] urethritis. […] In the work reported here we used McCoy and L929 cell cultures obtained from the Institute of Cytology of the Russian Academy of Sciences. The cells were grown in flasks of neutral glass in RPMI-1640 medium with an addition of 10% fetal calf serum. The experiment was placed in glass (toxicity-free) flat-bottomed flasks and covered with glass. The cells were introduced into the medium in a final concentration of 1·10 cells/ml. […] The sample was centrifuged at 2400 g for 60 min at room temperature and incubated at 37° C. for 2 hours. […] A parallel series of samples was run using medium without the cycloheximide in order to avoid its influence on the test substances. The samples were incubated for 48 hours in a CO2 incubator. […] The results were evaluated from the detection of chlamydia cytoplasmatic inclusion by an immunoenzyme method (MicroTrac Chlamydia trachomatis Direct Specimen Test) and from chlamydia antigens using CylaMonoScreen (Russian-British Joint Venture, 66 Regent's Park Road, London NW 1 7SX).

The subject of data set [2] is herpes simplex type I (VPG-I/Leningrad/248/88). As to the kind of experiment: Activity on herpes simplex virus: cytopathic action of the virus on Vero cells. The following applies: 36 hours; for number of cells in 100 fields (unchanged cells): cell control 12000. Format: cell-based. How it is done: The antiviral activity was studied relative to the virus herpes simplex type I (VPG-I/Leningrad/248/88) by a standard method. The virus was grown on a reinoculated Vero cell culture obtained from the cell culture bank of the Institute of Cytology of the Russian Academy of Sciences.
To cells grown on medium RPMI-1640 with 10% calf serum and placed in the wells of a 96-well plate, the virus was added to give a final concentration of 10 particles/ml and the claimed compounds dissolved in DMSO were added to give a final concentrations of 100, 10, and 1 mg/l. We used 5 individual wells for every concentration tested. The plate was incubated for 60 min at 38° C. in a CO2 incubator. After incubation the virus was removed and new medium was added that contained the claimed compounds in the test concentrations.
The results were evaluated according to the existence of a cytopathic action of the virus on the cells after 36 hours of incubation at 38° C. in the CO2 incubator.
The following controls were used in the experiment:
3. Control of antiviral activity of an antiviral preparation—acylcovir.
To access the cytopathic effect of the virus, we counted the number of unchanged cells in 100 fields formed by a specialized grid on the eyepiece of the inversion microscope.

Data set [3] shares this test system. The data set is described as above. The following applies: 50 mg/l, 36 hours; for number of cells in 100 fields (unchanged cells): cell control 12000. Format: cell-based.
Data set [4] is described as follows: Acute toxicity (LD50) in mice. The following applies: non-linebred white, mouse, in vivo, iv; mice 18-20 g; by mouth or intravenously; observation period 14 days. In kind it is in vivo. How it is done:
(§1) Acute toxicity was determined on non-linebred white mice weighing 18-20 g. Emulsions of certain of the claimed compounds were prepared in a range of concentrations: 1500, 700, 500, 100, 20 and 5 μg/kg. Five animals were used to study each specific concentration of a compound. The preparation was administered once a day by mouth or intravenously. The observation period was 14 days On days 1, 8 and 15 the animals in every group were weighed. For a control we used animals who received the emulsion without the test compounds.
(§2) All animals, both that died in the course of the experiment and those that survived to the end of the experiment, were opened to allow macroscopic examination of internal organs.
(§3) In the course of the experiment no loss of weight was observed or any change in behavior or external appearance, nor was there any loss of life. Based on the results of the macroscopic examination of internal organs of the animals in the test and the control groups, no pathological findings were made (Table 7).

In another data set the test system is non-linebred white mice. As to the kind of experiment: Acute toxicity (LD50) in mice. In kind it is in vivo. The following applies: mice 18-20 g; by mouth or intravenously; observation period 14 days. How it is done: as §1, §2, §3

Turning to `O=[N+]([O-])c1ccc(C2c3c(O)nc(O)nc3Oc3nc(O)nc(O)c32)cc1` [I, 2,4,6,8-Tetrahydroxy-5-(p-nitrophenyl)-5H-pyrano[2,3-d:6,5-d′]dipyrimidine], the “Interferon-inducing activity of the drug; content of INF in induction mixture” value amounted to 8.0 ± 0.8 IU/3 · 10^4 lymp/ml in data set [1] (1 (unit uncertain)), 28.0 ± 1.5 IU/3 · 10^4 lymp/ml in data set [1] (10 (unit uncertain)) and 80.0 ± 1.2 IU/3 · 10^4 lymp/ml in data set [1] (100 (unit uncertain)). Also, the “percent protection of the cells against infection” value in the data set with C. trachomatis D323 (30 mg/l) is 70%; with C. trachomatis D323 (100 mg/l), 80%. In addition, the “number of cells in 100 fields (unchanged cells)” value is listed as 7520 in the data set with C. trachomatis D323 (30 mg/l); 7640 in the data set with C. trachomatis D323 (100 mg/l); 7200 in data set [2] (10 mg/l); 9600 in data set [2] (100 mg/l); 8400 in data set [3]. Besides, the “percent protection of the cells against the virus compared to the cell culture control” value was 60% in data set [2] (10 mg/l), 80% in data set [2] (100 mg/l) and 70% in data set [3]. The compound also registered an LD50 at 14 days in data set [4] of 1600 mg/kg.

Turning to `Oc1nc(S)nc2c1C(c1ccc(Cl)cc1)c1c(O)nc(S)nc1O2` [VIII], the results for the “Interferon-inducing activity of the drug; content of INF in induction mixture” value in data set [1] (1 (unit uncertain)), in data set [1] (10 (unit uncertain)) and in data set [1] (100 (unit uncertain)) were 1.5 ± 1.0 IU/3 · 10^4 lymp/ml, 23.2 ± 1.5 IU/3 · 10^4 lymp/ml and 70.5 ± 2.5 IU/3 · 10^4 lymp/ml, respectively. Moreover, the “percent protection of the cells against infection” value in the data set on C. trachomatis D323 (100 mg/l) was 60%. Also, the “number of cells in 100 fields (unchanged cells)” value with C. trachomatis D323 (100 mg/l) was 7360; in data set [2] (10 mg/l), 2400; in data set [2] (100 mg/l), 10800; in data set [3], 6000. Besides, the “percent protection of the cells against the virus compared to the cell culture control” value in data set [2] (10 mg/l) came to 20%; in data set [2] (100 mg/l), 90%; in data set [3] it was 50%. Moreover, in the data set with non-linebred white mice, the LD50 is listed as 1800 mg/kg.
